Earlier results, collected in patent US20090081697A1, “Methods of growing crystals of free and antibiotic complexed large ribosomal subunits, and methods of rationally designing or identifying antibiotics using structure coordinate data derived from such crystals” (Yeda Research and Development Co. Ltd., priority 2001, published 2009).

Experiments:
ribosomes [1] = conditions: compared with erythromycin; Hansen et al. 1999
[2] = relative to erythromycin
ribosomes [3] = conditions: Tenson et al. 1996

SMILES	acid stability [2]	other results
CC[C@H]1OC(=O)[C@H](C)C(=O)[C@H](C)[C@@H](O[C@@H]2O[C@H](C)C[C@H](N(C)C)[C@H]2O)[C@](C)(OC)C[C@@H](C)C(=O)[C@H](C)[C@@H](O)[C@]1(C)O [RU56006]	–	Kd (ribosomes [1]): of the same order of magnitude as that of erythromycin
CC[C@H]1OC(=O)[C@H](C)[C@@H](O[C@H]2C[C@@](C)(OC)[C@@H](O)[C@H](C)O2)[C@H](C)[C@@H](O[C@@H]2O[C@H](C)C[C@H](N(C)C)[C@H]2O)[C@](C)(OC)C[C@@H](C)C(=O)[C@H](C)[C@@H](O)[C@]1(C)O [clarithromycin]	increased acid stability relative to erythromycin	–
CC[C@H]1OC(=O)[C@H](C)[C@@H](O[C@H]2C[C@@](C)(OC)[C@@H](O)[C@H](C)O2)[C@H](C)[C@@H](O[C@@H]2O[C@H](C)C[C@H](N(C)C)[C@H]2O)[C@](C)(O)C[C@@H](C)C(=O)[C@H](C)[C@@H](O)[C@]1(C)O [erythromycin]	–	length of peptides produced by erythromycin-bound ribosomes (ribosomes [3]): up to 8 residues
CC[C@H]1OC(=O)[C@H](C)[C@@H](O[C@H]2C[C@@](C)(OC)[C@@H](O)[C@H](C)O2)[C@H](C)[C@@H](O[C@@H]2O[C@H](C)C[C@H](N(C)C)[C@H]2O)[C@](C)(O)C[C@@H](C)/C(=N\OCOCCOC)[C@H](C)[C@@H](O)[C@]1(C)O [roxithromycin]	increased acid stability relative to erythromycin	–
